Test system: blood
Experiment: Effect of tranexamic acid on blood coagulation (Example 5)
Assay type: cell-based
Conditions: Experimental Condition F: 0.25 mL of 0.02/0.05/0.1 wt % tranexamic acid in distilled water alone; 0.5 mL blood
Method: While tranexamic acid, a hemostatic agent with antifibrinolytic activity, was used under the above-described conditions, the time taken to induce blood clots was monitored.
—Experimental Condition A • 1. 0.5 mL of blood was placed on each Petri-dish. • 2. A mixture of 0.25 mL of the solution of Example 1 and 0.25 mL of the 1 wt % calcium chloride solution containing 0.71 wt % of DOPA and 0.02 wt % of tranexamic acid was added to the Petri-dish of 1. • 3. A mixture of 0.25 mL of the solution of Example 1 and 0.25 mL of the 1 wt % calcium chloride solution containing 0.71 wt % of DOPA and 0.05 wt % of tranexamic acid was added to the Petri-dish of 1. • 4. A mixture of 0.25 mL of the solution of Example 1 and 0.25 mL of the 1 wt % calcium chloride solution containing 0.71 wt % of DOPA and 0.1 wt % of tranexamic acid was added to the Petri-dish of 1. • 5. Reactions in the Petri-dishes were observed.
—Experimental Condition B • 1. 0.5 mL of blood was placed on each Petri-dish. • 2. A mixture of 0.25 mL of the solution of Example 1 and 0.25 mL of the 1.5 wt % calcium chloride solution containing 0.67 wt % of DOPA and 0.02 wt % of tranexamic acid was added to the Petri-dish of 1. • 3. A mixture of 0.25 mL of the solution of Example 1 and 0.25 mL of the 1.5 wt % calcium chloride solution containing 0.67 wt % of DOPA and 0.05 wt % of tranexamic acid was added to the Petri-dish of 1. • 4. […]

NC[C@H]1CC[C@H](C(=O)O)CC1 [tranexamic acid]
blood coagulation rate: at lower rates than when in the presence of the esterified atelocollagen
